Assays:
Assay in all cases: relative viability (nuclei count vs DMSO), 5 days (fraction); higher = more cells survive
IU1-47 + Tozasertib = compound: CC1=CC(=C(N1C2=CC=C(C=C2)Cl)C)C(=O)CN3CCCCC3 [IU1-47] + Cc1cc(Nc2cc(N3CCN(C)CC3)nc(Sc3ccc(NC(=O)C4CC4)cc3)n2)n[nH]1 [Tozasertib] (partner 0.1 µM)
Procedure, shortened: (§1)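 Nuclei were stained with Hoechst during a one-step fixation (final 0.05% Triton X-100, 1% formaldehyde, 1 ug/ml Hoechst) carried out 5 days after dosing, then counted on 4× images. The cells, lung cancer lines in 1536-well plates, had been dosed by pin tool the day after seeding with one drug alone or a fixed anchor-drug dose plus five library-drug doses (not always all listed) in √10 steps. Relative viability is the nuclei count in treated wells divided by that in vehicle wells, and each value is the median of duplicate plates.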

FG-4592 + Foretinib = compound: Cc1nc(C(=O)NCC(=O)O)c(O)c2ccc(Oc3ccccc3)cc12 [FG-4592] + COc1cc2c(Oc3ccc(NC(=O)C4(C(=O)Nc5ccc(F)cc5)CC4)cc3F)ccnc2cc1OCCCN1CCOCC1 [Foretinib] (partner 0.25 µM)
Procedure, shortened: as §1

FG-4592 + Linsitinib = compound: Cc1nc(C(=O)NCC(=O)O)c(O)c2ccc(Oc3ccccc3)cc12 [FG-4592] + C[C@]1(O)C[C@@H](c2nc(-c3ccc4ccc(-c5ccccc5)nc4c3)c3c(N)nccn32)C1 [Linsitinib] (partner 1 µM)
Procedure, shortened: as §1

FG-4592 + Bortezomib = compound: Cc1nc(C(=O)NCC(=O)O)c(O)c2ccc(Oc3ccccc3)cc12 [FG-4592] + CC(C)C[C@H](NC(=O)[C@H](Cc1ccccc1)NC(=O)c1cnccn1)B(O)O [Bortezomib] (partner 0.002 µM)
Procedure, shortened: as §1

Cell Line | relative viability (IU1-47 + Tozasertib; first compound 0.08 µM) | relative viability (IU1-47 + Tozasertib; first compound 0.253 µM) | relative viability (IU1-47 + Tozasertib; first compound 0.8 µM) | relative viability (IU1-47 + Tozasertib; first compound 8 µM) | relative viability (FG-4592 + Foretinib; first compound 0.08 µM) | relative viability (FG-4592 + Foretinib; first compound 0.253 µM) | relative viability (FG-4592 + Foretinib; first compound 2.53 µM) | relative viability (FG-4592 + Foretinib; first compound 8 µM) | relative viability (FG-4592 + Linsitinib; first compound 0.08 µM) | relative viability (FG-4592 + Linsitinib; first compound 0.253 µM) | relative viability (FG-4592 + Linsitinib; first compound 0.8 µM) | relative viability (FG-4592 + Linsitinib; first compound 2.53 µM) | relative viability (FG-4592 + Linsitinib; first compound 8 µM) | relative viability (FG-4592 + Bortezomib; first compound 0.08 µM) | relative viability (FG-4592 + Bortezomib; first compound 0.253 µM) | relative viability (FG-4592 + Bortezomib; first compound 0.8 µM) | relative viability (FG-4592 + Bortezomib; first compound 2.53 µM) | relative viability (FG-4592 + Bortezomib; first compound 8 µM) | relative viability (FG-4592 + Foretinib; first compound 0.8 µM) | relative viability (IU1-47 + Tozasertib; first compound 2.53 µM)
201T | 0.991 | 0.947 | 1.05 | 0.762 | 1.11 | 1.04 | 1.15 | 1.07 | 0.943 | 0.963 | 0.897 | 1.08 | 1.02 | 1.11 | 1.12 | 1.04 | 1.1 | 1.08 |  | 
A549 |  |  |  |  | 1.01 | 0.898 | 0.991 | 0.866 | 0.476 | 0.549 |  | 0.546 | 0.588 |  |  |  |  |  | 1.03 | 
A-427 | 0.201 | 0.208 | 0.236 | 0.212 | 0.98 | 1.11 | 0.98 | 1.18 | 1.06 | 1.05 | 1.06 | 1.14 | 1.1 | 0.925 | 0.979 | 0.983 | 0.946 | 0.954 | 1.03 | 
ABC-1 | 0.188 | 0.165 | 0.158 | 0.193 | 0.938 | 0.929 | 1.03 | 0.76 | 0.92 |  | 0.722 | 0.8 | 0.844 | 0.365 |  | 0.308 | 0.359 | 0.22 | 1.03 | 
BEN | 0.499 | 0.444 | 0.49 | 0.506 | 0.522 | 0.597 | 0.764 | 0.464 | 0.85 | 0.748 | 0.692 | 0.934 | 0.602 | 0.608 | 0.733 | 0.701 | 0.825 | 0.546 | 0.607 | 0.631
CAL-12T | 0.408 | 0.326 | 0.34 | 0.287 | 1.05 | 0.746 | 1.02 | 1.01 | 0.709 | 0.798 | 0.836 | 0.775 | 0.716 | 1.05 | 1.07 | 0.601 | 1.15 | 0.902 | 1.06 | 0.318
COR-L23 | 0.184 | 0.183 | 0.206 | 0.18 | 0.856 | 0.832 | 0.982 | 0.991 | 0.832 | 0.746 | 0.915 | 0.913 | 0.912 | 1.03 | 0.874 | 1.26 | 0.888 | 0.889 | 1.03 | 0.207
COR-L 105 | 0.372 | 0.387 | 0.379 | 0.326 | 0.817 | 1.06 | 0.96 | 0.718 | 0.897 | 0.738 | 1.12 | 1.08 | 0.997 | 0.75 | 0.725 | 0.796 | 0.807 | 0.674 | 1.2 | 0.355
Calu-6 |  |  |  |  | 0.907 | 0.887 | 0.924 | 0.758 | 0.863 | 0.942 | 0.941 | 0.859 | 0.993 | 0.98 | 0.854 | 0.938 | 1.1 | 0.926 | 0.966 | 

Reference: the supplement of paper PMC10307832
